Several values for one entry are separate records, joined by “and”; a condition that tells them apart may be missing. Identical values can stand only once.
Assays:
[1] = tested on: mouse oxaliplatin model of chemotherapy-induced neuropathy; test: Thermal hypersensitivity, cold plate test, Study 2; conditions: Group B Oxaliplatin/Vehicle; for Latency to withdrawal behaviour in the cold plate test (15° C.): N 12
Protocol: Thermal hypersensitivity: Thermal hypersensitivity was assessed using a dynamic cold plate (Bioseb, France) set at a fixed temperature of 15° C. This method allows analysis of more integrated behaviors rather than reflex behaviors, e.g., the tail immersion test. In animal studies, thermal sensitivity is mostly evaluated based on nociceptive reaction latencies in response to a given thermal aversive stimulus. In this classical test, the temperature of the plate is fixed and remains constant: the latency to the first paw licking, jumps or withdrawal is taken as an index of nociceptive threshold. […] The results of the study are shown in Table 5 (raw data) below, Table 6 (summary) below, FIG. 4, and FIG. 5.
(§1) 60 adult male C57/BL6 mice (Charles River), 6-7 weeks of age, were housed in groups of 5 in Perspex cages, in a controlled environment of constant temperature and humidity (temperature: 21±1° C., light: dark cycle of 12:12 hours), with food and water available ad libitum. Animals were allowed to recover from transportation for at least one week before commencing experiments.
Thermal hypersensitivity: The same apparatus and protocol were used as for Study 1. The results of Study 2 are shown in Table 11 (raw data), Table 12 (summary), FIG. 8, and FIG. 9.

[2] = tested on: mouse oxaliplatin model of chemotherapy-induced neuropathy; test: Static mechanical (tactile) allodynia, von Frey filaments, Study 1; type: in vivo
Protocol: as §1
(§2) Static mechanical tactile allodynia: Static mechanical (tactile) allodynia was assessed by measurement of withdrawal threshold using calibrated (force; g) von-Frey monofilaments (Touch-Test Sensory Evaluator; Scientific Marketing Associates) applied to the plantar surface of the left hind-paw. The animals were placed in individual Perspex boxes on a raised metal mesh for 30-40 min before the test to habituate. A series of graduated von Frey hairs (0.07, 0.16, 0.4, 0.6 and 1 g) were applied in sequence with a protocol of 1 sec on 1 sec off repeated 10 times. Each hair was applied perpendicularly to the center of the ventral surface of the paw until it bent slightly. The force applied to the hind-paw of the animal to induce 5 responses out of 10 trials was recorded as paw withdrawal threshold (PWT) 50%.
Warm vials of BQX-350 were brought to room temperature and reconstituted with 4 mL water for injection via syringe. The vials were gently agitated and/or vortexed for 15-20 sec and allowed to sit at room temp for 5 mins. The rehydrated solution contained 2.2 mg/mL SapC (8.8 mg SapC per vial). About […] of the formulation was injected to achieve a target dose of 20 mg/kg in each mouse. Pregabalin was reconstituted in water and injected to achieve a target dose of 30 mg/kg in each mouse.
A two-way repeated measures ANOVA with ‘treatment’ as a between subjects effect, and ‘day’ as a within subjects effect was used (using GraphPad Prism version 9.0 for Windows, GraphPad Software, San Diego California USA), followed by Dunnett's multi comparisons test. Data is presented as mean±SEM.

[3] = Body weights, Study 2; type: in vivo, mouse; conditions: Group B Oxaliplatin/Vehicle, individual mice
Excerpt: Body Weights: The mice were weighed daily starting 1 day prior to treatment through day 9.

[4] = tested on: PC-12 cells; test: Viable cell counts, PC-12 cells; type: cell-based, rat; conditions: for cell viability (in words): 2 μM oxaliplatin alone
Protocol: The neurostimulatory, neuroprotective, and neurotrophic qualities of the SapC-phospholipid formulation (BXQ-350) were tested in vitro in two cell lines, i.e., PC-12 cells (derived from a pheochromocytoma of a rat adrenal medulla) and NS20Y cells (cholinergic cell line derived from a mouse neuroblastoma).
PC-12 cells (ATCC, catalogue number CRL-1721) and NS20Y cells (Millipore Sigma, catalogue number 08062517) were seeded overnight in 24-well plates containing 1×10^4 cells per well in 1 mL of DMEM (Gibco, catalog number 11965-092) supplemented with 10% FBS and PenStrep. Each agent tested was brought to solution, at its appropriate concentrations, in a dosing media consisting of high glucose, no glutamine, no calcium DMEM (Gibco, catalog number 21068-028) supplemented with 4 mM glutamine, 1 mM calcium gluconate and PenStrep. […] The seeding medium was completely removed from the cells before the dosing medium containing the testing agents was added.
PC-12 cells (ATCC, catalogue number CRL-1721) and NS20Y cells (Millipore Sigma, catalogue number 08062517) were seeded overnight in 24-well plates containing 1×10^4 cells per well in 1 mL of DMEM (Gibco, catalog number 11965-092) supplemented with 10% FBS and PenStrep. Each agent tested was brought to solution, at its appropriate concentrations, in a dosing media consisting of high glucose, no glutamine, no calcium DMEM (Gibco, catalog number 21068-028) supplemented with 4 mM glutamine, 1 mM calcium gluconate and PenStrep. BXQ-350 was tested at concentrations between 5 nM and 1 μM concentration of SapC. The seeding medium was completely removed from the cells before the dosing medium containing the testing agents was added.
The viability of the cytotoxic drug+BXQ-350 combination groups was about 50% of the BXQ-350 alone group.

[5] = tested on: mouse oxaliplatin model of chemotherapy-induced neuropathy; test: Static mechanical (tactile) allodynia, von Frey filaments, Study 2; type: in vivo; conditions: Study 2; oxaliplatin treated mice, days assessed; BXQ-350 2 and 10 mg/kg
Protocol: as §2, §1
Static mechanical tactile allodynia: The same apparatus and protocol were used as for Study 1.

[6] = oxaliplatin 10 mg/kg IP day 0 (+vehicle, BXQ-350 20 mg/kg IP or pregabalin 30 mg/kg IP), group mean

For `O=C([O-])C(=O)[O-].[NH-][C@@H]1CCCC[C@H]1[NH-].[Pt+4]` (relative stereo) [Oxaliplatin, cis-[(1R,2R)-1,2-cyclohexanediamine-N,N′][oxalato(2)-O,O′] platinum], the “Individual latency to displaying withdrawal behaviour in the cold plate test” value (from here on “Individual latency”) ([1]; oxaliplatin 10 mg/kg i.p. day 0, D 3, individual mice) was 18.8 s and 69.3 s and 84.0 s and 28.0 s and 19.9 s and 34.2 s and 36.8 s and 23.9 s and 77.7 s and 54.5 s, the “Latency to withdrawal behaviour in the cold plate test (15° C.)” value (shortened to “Latency to withdrawal behaviour”) ([1]; oxaliplatin 10 mg/kg i.p. day 0, D3, mean (SEM)) was 42.933 + s and the “Individual latency” value ([1]; oxaliplatin 10 mg/kg i.p. day 0, D 5, individual mice) was 29.8 s and 12.7 s and 28.7 s and 18.6 s and 13.1 s and 25.5 s and 33.8 s and 17.4 s and 47.1 s and 16.4 s and 11.8 s and 43.8 s. For the same molecule, the “Latency to withdrawal behaviour” value ([1]; oxaliplatin 10 mg/kg i.p. day 0, D5, mean (SEM)) was 24.888 ? s, the “Individual latency” value ([1]; oxaliplatin 10 mg/kg i.p. day 0, D 7, individual mice) was 13.7 s and 22.3 s and 7.4 s and 28.4 s and 4.8 s and 23.9 s and 26.1 s and 29.6 s and 23.2 s and 26.3 s and 12.7 s and 44.2 s and the “Latency to withdrawal behaviour” value ([1]; oxaliplatin 10 mg/kg i.p. day 0, D7, mean (SEM)) was 21.883 + s. The “Individual latency” value ([1]; oxaliplatin 10 mg/kg i.p. day 0, D 9, individual mice) was 25.2 s and 23.9 s and 39.0 s and 17.2 s and 18.4 s and 23.0 s and 35.0 s and 23.8 s and 12.7 s and 30.6 s and 6.4 s and 33.2 s, the “Latency to withdrawal behaviour” value ([1]; oxaliplatin 10 mg/kg i.p. day 0, D9, mean (SEM)) was 24.033 + s and the “Individual latency” value ([1]; oxaliplatin 10 mg/kg i.p. day 0, D −1, individual mice) was 26.1 s and 32.9 s and 45.8 s and 42.4 s and 24.4 s and 53.7 s and 64.3 s and 91.7 s and 31.2 s and 45.0 s and 37.0 s and 33.4 s. For the same molecule, the “Latency to withdrawal behaviour” value ([1]; oxaliplatin 10 mg/kg i.p. day 0, D −1, mean (SEM)) was 43.992 + s, the “Individual latency” value ([1]; oxaliplatin 10 mg/kg i.p. day 0, D −2, individual mice) was 36.8 s and 63.0 s and 47.4 s and 35.8 s and 31.9 s and 42.2 s and 61.4 s and 63.3 s and 55.6 s and 41.5 s and 29.0 s and 36.7 s and the “Latency to withdrawal behaviour” value ([1]; oxaliplatin 10 mg/kg i.p. day 0, D −2, mean (SEM)) was 45.383 + s. The “Individual latency” value ([1]; oxaliplatin 10 mg/kg i.p. day 0, D −3, individual mice) was 29.9 s and 35.1 s and 40.1 s and 49.9 s and 24.7 s and 30.0 s and 72.0 s and 50.6 s and 67.4 s and 55.6 s, the “Latency to withdrawal behaviour” value ([1]; oxaliplatin 10 mg/kg i.p. day 0, D −3, mean (SEM)) was 44.183 + s and the “PWT 50% (g) Baseline” value [2, 6] was 0.780 g. The “PWT 50% (g) D3” value [2, 6] was 0.423 g, the “PWT 50% (g) D5” value [2, 6] was 0.357 g and the “PWT 50% (g) D7” value [2, 6] was 0.369 g. For the same molecule, the “PWT 50% (g) D9” value [2, 6] was 0.373 g, the “mechanical allodynia (in words)” value ([2]; oxaliplatin treated animals, day 3 to day 9, BXQ-350 20 mg/kg, pregabalin 30 mg/kg 2 hours before assessment) was “induced consistent and persistent mechanical allodynic response” and the Individual body weights ([3]; D 0) was 26.0 g (2×) and 22.4 g and 23.6 g (2×) and 23.1 g and 24.5 g (2×) and 23.2 g and 24.6 g and 21.9 g and 26.1 g. For the same molecule, the Individual body weights ([3]; D 1) was 24.9 g (2×) and 21.1 g and 23.5 g (2×) and 22.5 g and 23.9 g and 23.7 g and 22.9 g and 23.0 g and 20.8 g and 25.4. g, the Individual body weights ([3]; D 2) was 24.8 g and 21.3 g and 23.2 g (2×) and 22.3 g and 24.6 g and 23.8 g (2×) and 23.0 g and 23.6 g and 21.0 g and 25.0 g and the Individual body weights ([3]; D 3) was 24.1 g and 22.4 g (2×) and 22.7 g and 22.2 g (2×) and 23.7 g and 23.0 g (2×) and 22.1 g and 20.6 g and 24.4 g. The Individual body weights ([3]; D 4) was 25.0 g (2×) and 23.5 g (3×) and 23.1 g (2×) and 22.6 g and 23.7 g and 22.7 g and 21.3 g and 24.8 g, the Individual body weights ([3]; D 5) was 25.2 g and 23.8 g and 22.8 g (2×) and the Individual body weights ([3]; D −1) was 25.3 g and 21.8 g and 23.6 g and 22.9 g (3×) and 25.5 g and 23.8 g and 24.1 g and 24.3 g and 21.6 g and 26.1 g. The Individual body weights ([3]; D −2) was 25.4 g (2×) and 21.9 g and 23.8 g (2×) and 23.3 g and 23.9 g and 23.0 g and 23.5 g and 24.1 g and 21.8 g and 25.2 g, the Individual body weights ([3]; D −3) was 26.0 g (2×) and 22.0 g (2×) and 24.0 g (4×) and 23.0 g (2×) and 25.0 g (2×) and the “cell viability (in words)” value [4] was “negligible cell viability”. The cell viability ([4]; 2 μM oxaliplatin alone (FIG. 12)) was “less than 1%”, the “cell viability (in words)” value ([4]; listed as oxaliplatin) was “severely reduces cell viability” and the “paw withdrawal threshold (PWT) levels (in words)” value [5] was “induced consistent and persistent mechanical allodynic response”.

Source: patent US20240316146A1, “METHODS OF REDUCING NEUROPATHY AND NEUROPATHIC SYMPTOMS AND TREATING CANCER” (Bexion Pharmaceuticals Inc., priority 2021, published 2024)
